# Measurements as given in patent US11364219B2, “Methods and pharmaceutical compositions for treating microbiome dysregulations associated with circadian clock disruption” (INSERM (INSTITUT NATIONAL DE LA SANTÉ ET DE LA RECHERCHE …, priority 2016, dated 2022).
# What was measured:
# Csnk2 = Csnk2 inhibitors listed as examples; cited from earlier work
# [1] = system: mouse embryonic fibroblasts (MEFs); details: U0126 treatment, data not shown
# colonic IECs [2] = test: Colonic IEC proliferation and apoptosis immunostaining (Ki67, caspase-3), wild-type mice; format: in vivo, mouse
# Excerpt: (§1) Mice and reagents. The Nlrp6-3xFlag-IRES-eGFP mouse was generated at the Institut Clinique de la Souris (Illkirch, France; further details available upon request). Age- and gender-matched Nlrp6-deficient (Nlrp6−/−) and control C57BL6/J mice had free access to a standard laboratory chow diet in a half-day light cycle exposure and temperature-controlled environment. All animal studies were approved by the local investigational review board (CEEA232009R) in an accredited establishment (N° B59-108) according to governmental guidelines N° 86/609/CEE. The experimental model of colitis was performed as previously described 10. Tissue and blood sampling was performed under LD conditions, with ZTO being the start of the light period (8 a.m.) and ZT12 the vespertinal crepuscule (8 p.m.). Apigenin (750 μg/mouse; Santa Cruz) was intraperitoneally given twice a week at ZT6 for 1 or 3 weeks period.
# (§2) Immunohistochemistry, Immunofluorescence and histological analysis. Intestinal tissue was fixed in formalin, dehydrated in series of increasing concentration of alcohols and toluene before being embedded in paraffin. For immunohistochemistry, 5 μm-thick tissue sections were placed on Superfrost Plus slides (Thermo Scientific), incubated for 10 min at 60° C. and rehydrated through a series of graded alcohols and distilled water. Endogenous peroxidases were blocked by 3% hydrogen peroxide for 10 min. […]
# clock machinery genes = test: Microarray and qRT-PCR gene expression after apigenin administration; format: in vivo, mouse
# Excerpt: as §1
# Gene expression and microarray analysis. […] The resulting cDNA (equivalent to 5 ng of total RNA) was amplified using the SYBR Green real-time PCR kit and detected on a Stratagene Mx3005P (Agilent Technologies). […] Relative mRNA levels (2-Ct) were determined by comparing (a) the PCR cycle thresholds (Ct) for the gene of interest and Actb (ΔCt) and (b) ΔCt values for treated and control groups (ΔCt). […]
# gut microbiota [3] = test: 16S rRNA gene sequencing of gut microbiota, Nlrp6-deficient mice; format: in vivo, mouse; details: apigenin- versus vehicle-treated Nlrp6-deficient mice, ANOSIM p=0.283
# Excerpt: as §1, with “Tissue and blood sampling was performed under LD conditions, with ZTO being the start of the light period (8 a.m.) and ZT12 the vespertinal crepuscule (8 p.m.). Apigenin (750 μg/mouse; Santa Cruz) was intraperitoneally given twice a week at ZT6 for 1 or 3 weeks period.” left out
# Microbiota analysis. […] Amplicons quantities were normalized using SEQUALPREP™ kit (Invitrogen) and pooled as a single library. […] Sequencing reads were primarily processed for quality control using the software MOTHUR. Forward and reverse reads were assembled to form contigs, reads not having perfectly matched specific primers and barcodes, having any ambiguous base and more than 8 homopolymers were removed from downstream analysis. Sequences not aligning to desired bacterial V3-V4 variable regions, suspected chimera and likely to be of non-bacterial origin were detected and removed. […] Indicator analysis was performed to identify prominent OTUs contributing to the differences between analysed groups. […] Statistical differences were determined by non-parametric Mann-Whitney Test.
# DSS-induced colitis [4] = test: DSS colitis model in Nlrp6-deficient mice pre-treated with apigenin; format: in vivo, mouse
# Excerpt: as §1
# Immunohistochemistry, Immunofluorescence and histological analysis. Intestinal tissue was fixed in formalin, dehydrated in series of increasing concentration of alcohols and toluene before being embedded in paraffin. For immunohistochemistry, 5 μm-thick tissue sections were placed on Superfrost Plus slides (Thermo Scientific), incubated for 10 min at 60° C. and rehydrated through a series of graded alcohols and distilled water. Endogenous peroxidases were blocked by 3% hydrogen peroxide for 10 min. Antigen retrieval was performed in citrate buffer (10 mM, pH 6) by steaming sections in a microwave oven for 20 min. Tissue sections were blocked with 5% BSA/PBS for 30 min at RT and primary Ab against either Ki67 (1:100, ab15580, Abcam), M2 Ab to Flag (1:100, F3165, Sigma) or cleaved caspase3 (1:50, 9661, Cell Signalling) was directly applied and incubated one hour at room temperature (RT) or overnight at 4° C. Slides were washed 3× in PBS before applying either secondary peroxidase-conjugated goat anti-rabbit IgG (1:100, Interchim) or peroxidase conjugated goat anti-mouse IgG (1:100, Interchim) Ab two hours at RT. […]
# gut microbiota [5] = test: 16S rRNA gene sequencing of gut microbiota, wild-type mice; format: in vivo, mouse
# Excerpt: as §1
# Microbiota analysis. 16S rRNA gene variable region V3 and V4 was amplified using dual indexed fusion primers, in brief primers consist of illumina linker sequence, 12 base barcode sequence and heterogeneity spacer followed by either 16S rRNA gene specific forward (319F: […]; SEQ ID NO: 1) or reverse (806R: […]; SEQ ID NO: 2) primer sequences 29. […] Amplicons quantities were normalized using SEQUALPREP™ kit (Invitrogen) and pooled as a single library. […] Sequencing reads were primarily processed for quality control using the software MOTHUR. Forward and reverse reads were assembled to form contigs, reads not having perfectly matched specific primers and barcodes, having any ambiguous base and more than 8 homopolymers were removed from downstream analysis. Sequences not aligning to desired bacterial V3-V4 variable regions, suspected chimera and likely to be of non-bacterial origin were detected and removed. […] Indicator analysis was performed to identify prominent OTUs contributing to the differences between analysed groups. Non parametric Shannon index of diversity was calculated as a measure of alpha diversity index. Statistical differences were determined by non-parametric Mann-Whitney Test.
# colonic IECs [6] = test: Colonic IEC proliferation immunostaining (Ki67), Nlrp6-deficient mice; format: in vivo, mouse; details: three-week regimen of apigenin
# Excerpt: as §1, §2
# DSS-induced colitis [7] = test: DSS colitis model in wild-type mice pre-treated with apigenin; format: in vivo, mouse
# Excerpt: as §1
# Immunohistochemistry, Immunofluorescence and histological analysis. Intestinal tissue was fixed in formalin, dehydrated in series of increasing concentration of alcohols and toluene before being embedded in paraffin. For immunohistochemistry, 5 μm-thick tissue sections were placed on Superfrost Plus slides (Thermo Scientific), incubated for 10 min at 60° C. and rehydrated through a series of graded alcohols and distilled water. Endogenous peroxidases were blocked by 3% hydrogen peroxide for 10 min. Antigen retrieval was performed in citrate buffer (10 mM, pH 6) by steaming sections in a microwave oven for 20 min. Tissue sections were blocked with 5% BSA/PBS for 30 min at RT and primary Ab against either Ki67 (1:100, ab15580, Abcam), M2 Ab to Flag (1:100, F3165, Sigma) or cleaved caspase3 (1:50, 9661, Cell Signalling) was directly applied and incubated one hour at room temperature (RT) or overnight at 4° C. Slides were washed 3× in PBS before applying either secondary peroxidase-conjugated goat anti-rabbit IgG (1:100, Interchim) or peroxidase conjugated goat anti-mouse IgG (1:100, Interchim) Ab two hours at RT. Targeted antigens were visualized by using 3.3′-diaminobenzidine solution (BD Pharmingen) followed by nuclear counterstain with hematoxylin. Immunofluorescence staining procedure was done by incubation overnight at 4° C. of primary antibody against Lysozyme (A0099, Dako) at 1:1000 according to the protocol provided by Cell Signalling Technology. Secondary Ab (1:200, A11008, Life Technologies) was applied for 1 hour at RT followed by nuclear counterstain with DAPI. Tissue sections were covered by using ProLong® Gold Antifade reagent (Life Technologies). Microscopic analyses were performed by using the Zeiss Axioplan 2 imaging microscope, Axio Imager Z1 microscope, Axiovision software (all from Zeiss, Oberkochen, Germany), and ImageJ software. Staining of cryosections […] was performed to stain GFP on colonic tissue according to manufacturer's instructions (Cell Signaling Technology). Polyclonal rabbit anti-GFP Ab (1/1000, Molecular Probes) and monoclonal rat anti-integrin 6 Ab (1/100, BD Pharmingen) were used as primary Abs and incubated together on the samples for 3 hours at RT. Secondary AF488-coupled goat anti-rabbit Ab and AF594-coupled goat anti-rat Ab (1:500, Molecular Probes) applied for 1 hour at RT followed by counterstain with DAPI. Sections were covered with Mowiol.
# [8] = wild-type mice, DSS, apigenin administration
structure (smiles),measurement,setting,value
"O=C(O)c1ccc2c(c1)nc(Nc1cccc(Cl)c1)c1ccncc12 [CX-4945, 5-(3-Chloro-phenylamino)-benzo[c] [2,6] naphthyridine-8-carboxylicacid]",IC50,Csnk2,2 nM
"O=C(O)Cc1c2ccccc2n2c1[nH]c(=O)c1ccccc12 [IQA, 5-oxo-5,6-dihydroindolo-(1,2-a) quinazolin-7-yl acetic acid]",IC50,Csnk2,390 nM
"O=c1c2c(O)cccc2oc2c([N+](=O)[O-])ccc(O)c12 [MNX, 1,8-dihydroxy-4-nitro-xanthen-9-one]",Ki,Csnk2,800 nM
"O=C(O)/C=C/c1cc(Br)c(Br)c(Br)c1Br [TBCA, (E)-3-(2,3,4,5-tetrabromophenyl)acrylic acid]",Ki,Csnk2,77 nM
"Brc1c(Br)c(Br)c2[nH]cnc2c1Br [TBI, 4,5,6,7-1H-tetrabromobenzimidazole]",Ki,Csnk2,300 nM
"CC(C(=O)O)N1C(=O)c2c(I)c(I)c(I)c(I)c2C1=O (stereo not shown) [TID46, 2-(4,5,6,7-tetraiodo-1,3-dioxo-1,3-dihydro-2Hisoindol-2-yl)propanoic acid]",IC50,Csnk2,150 nM
N#CC(=C(/N)Sc1ccccc1N)/C(C#N)=C(\N)Sc1ccccc1N [U0126],growth rate of treated wild-type MEFs versus similarly treated Nlrp6-deficient MEFs,[1],comparable
"O=c1cc(-c2ccc(O)cc2)oc2cc(O)cc(O)c12 [apigenin, 4′,5,7-trihydroxyflavone]",number of caspase-3 positive IECs,colonic IECs [2]; three-week regimen of apigenin,without any change
same,IEC proliferation (Ki67 Ab staining),"colonic IECs [2]; three-week regimen of apigenin (750 μg/mouse, twice a week)",lowered IEC proliferation
same,colonic transcript levels of several clock machinery genes (qRT-PCR),"clock machinery genes; apigenin administration, through Nlrp6",significantly influenced
same,genes differentially expressed (microarray),"clock machinery genes; wild-type mice, Logfc of 1.5, upon apigenin administration",54
same,global changes in the composition of the gut microbiota,gut microbiota [3],failed to observe global changes
same,wasting disease (body weight loss),DSS-induced colitis [4]; apigenin 3 weeks before 2% DSS,failed to improve wasting disease
same,colon length,"DSS-induced colitis [4]; apigenin, DSS",did not alter colon length
same,inflammation in histological analysis,"DSS-induced colitis [4]; apigenin, DSS",had no effect on inflammation
same,Clostridium sensu stricto and unclassified Ruminococcacceae,gut microbiota [5]; apigenin treatment in wild-type mice,reduction
same,"genera derived from Bacteroidetes (Alistipes, Parasatuerlla, Bacteroides)",gut microbiota [5]; apigenin-induced changes among bacterial OTUs,expansion
same,gut microbiota composition versus controls,"gut microbiota [5]; apigenin-treated wild-type mice, ANOSIM on Jaccard distances, p=0.015",markedly different
same,anti-proliferative effect (Ki67),colonic IECs [6],abrogated
same,anti-inflammatory effect,DSS-induced colitis [7]; mice housed in darkness for three circadian cycles during DSS exposure,no anti-inflammatory effect
same,body-weight loss,"DSS-induced colitis [7]; wild-type mice on LD cycles, apigenin 3 weeks (750 μg/mouse, twice a week) before 2% DSS",less severe body-weight loss
same,colon length,DSS-induced colitis [7]; [8],greater colon length
same,disease-activity index,DSS-induced colitis [7]; [8],lower disease-activity index
same,infiltration of inflammatory cells (H&E-stained colon sections),"DSS-induced colitis [7]; wild-type mice, DSS, versus controls",reduced infiltration of inflammatory cells
"Cc1ccc2c(c1S(=O)(=O)O)SC(c1ccc3c(c1)SC(c1ccc(N(C)C)cc1)N3C)N2C (stereo not shown) [compound 1, 2′-(4-Dimethylamino-phenyl)-3,6,3′-trimethyl-[2,6′]bibenzothiazolyl-7-sulfonic acid]",IC50,Csnk2,500 nM
"O=C(O)c1c[nH]c2c(Cl)cc(Cl)c(Cl)c2c1=O [compound 7, 5,6,8-trichloro-4-oxo-1,4-dihydroquinoline-3-carboxylic acid]",Ki,Csnk2,60 nM
"O=C(O)/C=C/c1ccc[c]([Sb](=[O])([OH])[OH])c1 [compound 10, (E)-3-(3-stibonophenyl)prop-2-enoic acid]",IC50,Csnk2,150 nM
"O=C(O)c1cc(Br)c(Br)c(Br)c1 [compound 26, 3,4,5 tribromobenzoic acid]",IC50,Csnk2,640 nM
"O=C(O)c1c(Br)c(Br)c(Br)c(Br)c1-c1c2ccc(=O)cc-2oc2cc(O)ccc12 [compound 35, 2,3,4,5-tetrabromo-6-(6-hydroxy-3-oxo-3H-xanthen-9-yl)-benzoic acid]",IC50,Csnk2,80 nM
"Cc1cc(O)c2c(c1)C(=O)c1cc(O)cc(O)c1C2=O [emodin, 6-methyl-1,3,8-trihydroxyanthraquinone]",Ki,Csnk2,1500 nM
"O=C1C=C2CC3(O)COc4c(ccc(O)c4O)C3=C2C=C1O (stereo not shown) [hematein, 3,4,6a,10-tetrahydroxy-6,7-dihydroindeno[2,1-c] chromen-9-one]",IC50,Csnk2,550 nM
